Source: US10428151B2, “Treatment of hematologic malignancies with an anti-CXCR4 antibody” (BRISTOL-MYERS SQUIBB COMPANY, priority 2011, dated 2019)
Values joined by “and” are separate entries in the source; they are usually repeats but may differ in a detail not shown here. Equal entries are not always repeated.

Columns and labels:
Ramos tumor cells = assay: Ramos cell proliferation, 3H-thymidine incorporation; assay type: cell-based, human; conditions: 10^−3 to 300 nM; 72 hours
Method: In this example, the ability of the anti-CXCR4 human antibodies to inhibit proliferation of Ramos tumor cells (a human Burkitt's lymphoma cell line) in vitro was examined. […] The cells were incubated with antibody for 72 hours, with ^3H-thymidine being added for the final 24 hours of incubation to allow for monitoring of cell proliferation. Following the incubation, incorporation of ^3H-thymidine by the cells was measured by standard techniques. The results are shown in the graph of FIG. 11A.

Ramos cells [1] = assay: Ramos subcutaneous tumor cell model; assay type: in vivo, mouse; conditions: IP day 0 and 7; 15 mg/kg (Fab′ 10 mg/kg, also day 3 and 10)
Excerpt: In this example, the ability of the anti-CXCR4 human antibodies to inhibit proliferation of an established solid tumor in vivo was examined using a Ramos subcutaneous tumor cell model. In this assay, 10×10^6 Ramos cells/mouse were implanted into the flank region of each mouse and allowed to grow to a mean size of 40 mm^3, calculated by length×width×height/2 of the tumors. The mice then received an intraperitoneal (IP) injection of a first dose of antibody (designated as day 0 of treatment) and received a second IP dose of antibody on day 7. Mice treated with a Fab′ fragment antibody also received IP antibody doses on day 3 and day 10. […] Tumor volume and mouse body weight were measured at regular intervals (approximately 2-3 times/week) between day 0 and day 30 post dosing. The results of the experiment are presented in FIGS. 12A, 12B and 12C, which show mean tumor volume (FIG. 12A), median tumor volume (FIG. 12B) and median % body weight change (FIG. 12C). […] All treatments were well-tolerated as indicated by no significant body weight change. The differences in body weights between treatments were most likely due to the weights of the tumors.

Ramos cells [2] = assay: Ramos systemic tumor cell model, survival; assay type: in vivo, mouse; conditions: second experiment
Method: In this example, the ability of an anti-CXCR4 human antibody to increase survival time of mice was examined using a Ramos systemic tumor cell model. In this assay, 1×10^6 Ramos cells/mouse were injected intravenously (IV) into each mouse on Day 0. The mice then received an intraperitoneal (IP) injection of a first dose of antibody on Day 1 (i.e., one day after IV administration of tumor cells) and received four more IP doses of antibody, on days 5, 8, 15 and 22 (mice treated with the positive control antibody were treated only on day 1). […] Dose response studies had previously found 15 mg/kg to be an effective dose of anti-CD19 (data not shown). Percent survival was measured at regular intervals between Day 0 and Day 50 post dosing (hind leg paralysis was used as the endpoint of the experiment). […] The median numbers of days of survival for the mice treated with either vehicle or the isotype control were 23 and 25.5 days, respectively, whereas the median number of days of survival of the mice treated with one dose of the anti-CD19 positive control was 39 days.
The median number of days of survival for the mice treated with the vehicle or the isotype controls were 23-24 days, whereas the median number of days of survival of the mice treated with one dose of the anti-CD19 positive control was 39 days.

[3] = test system: MDA-MB231 human breast cancer cells; assay: MDA-MB231 breast cancer xenograft; assay type: in vivo, mouse
Excerpt: In one experiment, 7.5×10^6 MDA-MB231 human breast cancer cells/mouse were implanted into the flank region of each mouse and allowed to grow to a mean size of 100 mm^3, calculated by length×width×height/2 of the tumors, which was day 7 post-implantation. The mice were randomized into different treatment groups and received an intraperitoneal (IP) injection of a first dose of antibody on day 7 post-implantation, received a second IP dose of antibody on day 14 post-implantation and then received a third dose on day 46 post-implantation. […] Tumor volumes were measured at regular intervals and the mean and median tumor volume determined for each treatment group at each interval.

[4] = test system: SU-DHL-6 B cell lymphoma cells; assay: SU-DHL-6 subcutaneous xenograft; assay type: in vivo, mouse
Method: Additional subcutaneous xenograft tumor models were tested for the ability of anti-CXCR4 antibodies to inhibit tumor growth, in experiments similar to those described above and in Example 9. […] Although the tumor cells in vivo were stainable by the mAb by immunohistochemistry, it is unclear at what stage of their tumor growth CXCR4 began to be expressed.

HL-60 cells = assay: HL-60 AML xenograft in SCID mice; assay type: in vivo; conditions: for median tumor growth inhibition: Day 27, 10 mg/kg/dose
Excerpt: To assess the antibody's efficacy in AML, two cytarabine-resistant mouse xenograft models, HL-60 and Nomo-1 were used. CXCR4 expression in each cell line was confirmed by FACS staining (FIG. 4A). SCID mice were subcutaneously implanted with 10 million HL-60 cells as described in Example 14.

[5] = test system: Bortezomib-resistant JJN-3R cells; assay: JJN-3R MM xenograft in SCID mice; assay type: in vivo
parental JJN-3 cells = assay: JJN-3 MM xenograft in SCID mice; assay type: in vivo; conditions: Day 25; compared to vehicle control; MDX-1338 10 mg/kg/dose IP, bortezomib 0.8 mg/kg/dose IV
Excerpt: 5 million JJN-3 cells/mouse were implanted into SCID mice and the mice were randomized into groups of 8 when the tumor volume reached approximately 77 mm^3.

CLL cells [6] = conditions: 2-200 nM; Kashyap et al., 2012; cited from earlier work
CLL cells [7] = conditions: Kashyap et al., 2012; cited from earlier work
MM cells = conditions: compared to vehicle-treated mice; Roccaro et al., 2012; cited from earlier work
melanoma = melanoma xenograft model; compared to vehicle-treated mice; Roccaro et al., 2012; cited from earlier work
[8] = Day 59 post-implantation, 15 mg/kg IP

BMS-936564: fully human anti-CXCR4 monoclonal antibody; VH SEQ ID NO: 25, VL SEQ ID NO: 29
inhibition of Ramos cell proliferation (3H-thymidine incorporation) (Ramos tumor cells): able to inhibit Ramos cell proliferation
tumor cell growth (tumor volume) (Ramos cells [1]): significantly inhibited tumor cell growth
efficacy in prolonging mouse survival (Ramos cells [2]; 15 mg/kg): highly efficacious in prolonging mouse survival
percent of mice survived at end of experiment (Ramos cells [2]; five doses 15 mg/kg, 120 days after implantation): 100%
Mean tumor volume ([3]; Day 52 post-implantation, 15 mg/kg IP): 79 mm^3
Median tumor volume [3, 8]: 108 mm^3
TGI (%) (median) [3, 8]: 52%
mice tumor free ([3]; day 59, n=9): one
% Tumor Growth Inhibition (Monotherapy) ([4]; DHL6): 55% and 77%
tumor growth inhibition ([4]; SU-DHL-6, 15 mg/kg): approximately 60%
median tumor growth inhibition (HL-60 cells; compared to isotype): 88%
median tumor growth inhibition (HL-60 cells; compared to vehicle): 83%
% Tumor Growth Inhibition (Monotherapy) (HL-60 cells; HL60): 60% and 82%
mice tumor-free at the end of study ([5]; 30-mg/kg group): 4 out of 7
% Tumor Growth Inhibition (Monotherapy) ([5]; JJN3R): 97%
tumor growth inhibition ([5]; JJN-3R): MDX-1338 = 100%
median tumor growth inhibition ([5]; day 25, 10 or 30 mg/kg/dose IP, compared to isotype control): 100%
tumor growth inhibition (parental JJN-3 cells): 52%
cell death in CLL cells cultured alone and in the MRD model (CLL cells [6]): induced cell death
inhibition of CXCL12-mediated F-actin polymerization in CLL cells (CLL cells [7]): at lower concentrations than with AMD-3100
MM cell dissemination to distant bone marrow niches (MM cells): less MM cell dissemination
number of metastasis (melanoma): reduced number of metastasis
